Results published in patent US9259408B2, “Use of DHA, EPA or DHA-derived EPA for treating a pathology associated with cellular oxidative damage” (Brudy Technology S.L., priority 2005, dated 2016).

Assays:
[1] = system: ARPE-19 cells (retina pigmentary epithelial cells, CRL-2302); assay: ROS generation in ARPE-19 cells under AAPH oxidative stress (DHR123/H2DCFDA); format: cell-based
Description: (§1) The cellular models used were Foreskin cells (undifferentiated epidermal fibroblasts, CRL-2076) and ARPE-19 cells (retina pigmentary epithelial cells, CRL-2302) obtained from the American Type Culture Collection. The cell cultures were kept in suitable growth conditions of temperature (37° C.), CO2 concentration (5%) and humidity (95%) in an incubator specially designed for this purpose. The ARPE-19 cells were maintained in growth up to confluence of 0.3×10^4 cells/cm^2 in culture flasks with DMEM-F12 medium (Biological Industries) supplemented with 10% bovine foetal serum, penicillin antibiotics (100 U/mL), streptomycin (100 μg/mL) and glutamine (Biological Industries). […]
(§2) The ROS level was measured in primary cultures of human skin CRL-2076 fibroblasts and in ARPE-19 retinal epithelial cells by employing the fluorimetric technique using dihydrorodamine 123 (DHR123, Molecular Probes) and 2,7-dichlorofluorescein diacetate (H2DCFDA, Molecular Probes) as fluorescent probes in a continuous system measuring every 30 min until 180 minutes. […] The fluorescence of the oxidised probes (2,7-dichlorofluorescein and rodamine 123) was measured in a Mithras fluorescence reader at an excitation wavelength of 488 nm and an emission wavelength of 525 nm in function of the time. […]

Foreskin cells [2] = assay: Lipidic peroxides (TBARS/MDA) in Foreskin cells; format: cell-based, human; conditions: 40 mM AAPH; 50 μM DHA-TG
Description: The measurement of malonildialdehyde (MDA) on cell lysates was used as a marker of lipidic peroxidation by UV-Vis spectrophotometry. The MDA and the 4-hydroxyalkenals (HAE) are products derived from the peroxidation of polyunsaturated fatty acids and related esters. Direct measurements of these aldehydes constitutes a convenient index of lipidic peroxidation. A chromogenic reagent (N-methyl-2-phenyl-indole in acetonitrile) which reacts with the MDA at 45° C. was employed, using the commercial lipidic peroxidation kit from Calbiochem (No. 437634). The condensation of one molecule of MDA with two molecules of the chromogenic reagent gives a stable chromophore with maximum absorbance at 586 nm, with the detection limit being 0.1 μM. The induction was carried out for 6 h with 40 mM AAPH and 24 hours of latency. The cells (10^7 cells/mL) were lysed by means of cycles of freezing and thawing in liquid N2. The samples were fractionated in order to measure MDA and protein. The results were expressed in μM of MDA/mg of protein.

Foreskin cells [3] = assay: Superoxide anion generation (luminol chemiluminescence) in Foreskin cells; format: cell-based, human; conditions: 40 mM AAPH, with or without DHA; 10 mM Tyron or 0.1875 UA/μl exogenous SOD
Description: Direct measurement of the superoxide anion was carried out by means of the chemiluminescence technique on microplate measured by luminol (Calbiochem, No. 574590). Chemiluminescence for detecting the superoxide anion is a technique used due to its potential for gaining access to all the intracellular sites of superoxide generation, due to the high specificity of the reaction with luminol, the minimal intracellular toxicity and the increased sensitivity in relation to other chemical techniques. It is based on the superoxide anion oxidising luminol in a reaction that produces photons of light which are quickly measured on a standard illuminometer. In our tests we used a chemiluminescence reader on microplate from ELISA, MITHRAS and furthermore, given the short half-life of the radical, an enhancer was used to increase the sensitivity of the test and amplify the response. […] The chemiluminescence measurement in the cells submitted to the AAPH oxidative stress inducing treatment was analysed every […] for a total time of 4100 seconds, at a frequency of 120 sec/cycle. […]

[4] = system: Foreskin cells (undifferentiated epidermal fibroblasts, CRL-2076); assay: ROS generation in Foreskin cells under xanthine/xanthine oxidase oxidative stress (CDCFDA); format: cell-based, human; conditions: 100 μM Vitamin E
Description: as §1, §2

For CCCCS(=N)(=O)CCC(N)C(=O)O (stereo not shown) [BSO, Buthionine sulfoximine, reference compound], the “effect of addition of BSO on the protective effect of DHA” value [1] was “eliminates the protective effect of DHA”.

In the case of CC/C=C\C/C=C\C/C=C\C/C=C\C/C=C\C/C=C\CCC(=O)O [DHA, docosahexaenoic acid], the “protection against lipidic peroxides (TBARS)” value (Foreskin cells [2]) is reported as 48%.

In the case of O=S(=O)(O)c1cc(O)c(O)c(S(=O)(=O)O)c1 [Tyron, 4,5-dihydroxy-1,3-benzene disulphonic acid, reference compound], the “production of superoxide anion in cells stressed with AAPH” value (Foreskin cells [3]) is reported as “totally inhibited”.

In the case of vitamin E [reference compound], the “inhibition of cellular oxidation” value [4] is reported as 30%.
